Here are results for five compounds from patent US7049331B2, “1,2,4-thiadiazole derivatives as melanocortin receptor modulators” (Ortho-McNeil Pharmaceutical, Inc., priority 2001, dated 2006).

Assay [1] addresses T1, melanocortin MC-4 receptor (Homo sapiens, UniProt P32245).
T1 construct: purchased Receptor Biology Inc
In words: Melanocortin MC-4 Receptor Binding Assay (SPA). The method in brief:
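Membranes bound to WGA SPA beads were incubated 16 h at 25° C with 40 pM ¹²⁵I-NDP-MSH and test compound (1 mM stock in 30% DMSO-HEPES pH 7.4). Nonspecific binding set with 1 μM NDP-MSH or α-MSH; percent inhibition from bound cpm.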

Assay [2] concerns human sebocytes. In words: Visual observation of lipid granule formation in sebocytes. It is filed as cell-based. As for the experimental part:
Semiconfluent cultures of 3T3 mouse fibroblasts (Swiss Albino mouse, ATCC CCL-92) were treated with mitomycin C (4 μg/ml) for 3 hours, trypsinized and seeded at a density of 2.5×10^5/9.5 cm^2 tissue culture plate in Dulbeccos Minimal Essential Medium (DMEM) containing 10% Colorado Calf Serum, PNC (100U/ml), STM (100 μg/ml), L glutamine (0.3 mg/ml), sodium pyruvate (1 mM) and nonessential amino acids (100 μM). The cells were incubated at 37° C. for 24 hours prior to their use as a feeder layer for sebocytes.
Human sebocytes were isolated from Dermatome shavings of postoperative pieces of human skin at 0.4–0.8 mm depths (this part of the skin was previously shown to be enriched in sebaceous glands). Shavings so obtained were treated with 1% Dispase in Iscoves medium containing 10% serum for 20 min at 37° C. The tissue was then placed in 0.3% trypsin/1% EDTA in Phosphate Buffered Saline (PBS) for 10 minutes at 37° C. Following this incubation the cells were gently scraped from the tissue in Growth medium (GM) containing DMEM/F12 media mixture (3:1), supplemented with 8% heat inactivated FBS, 2% heat inactivated human serum (HS), 1 mM sodium pyruvate, epidermal growth factor (10 ng/ml), insulin (10 μg/ml), hydrocortisone (0.4 μg/ml) and +/−cholera toxin (100 μg/ml), L-glutamine and antibiotics. Cells so obtained were filtered through nylon mesh ([…]), centrifuged at 750 RPM, re-suspended in GM and counted.
Resultant cells from the above isolation procedure were plated on the 3T3 feeder layers at 2×10^5/9.5 cm^2 in growth medium and maintained at 37° C. and 5% CO2 for 3 days (Phase I). Following the initial growth period they were transferred to a transition medium (TM) that consisted of DMEM/F12 media supplemented with 1 mM sodium pyruvate, insulin ([…]), transferrin ([…]) and selenium (5.5 μg/ml) (ITS), 2% heat inactivated FBS and 2% heat inactivated human serum as well as +/−cholera toxin (ch.t.) (100 μg/ml), L-glutamine and antibiotics (Phase II). Three days later the cells were changed to differentiation medium (DM), DMEM/F12 supplemented with ITS, 3,3′,5-triido-L-thyronine sodium (3 nM), 1%(v/v) trace element mix and the choice of differentiation agent i.e. bovine pituitary extract (10 μg/ml). This medium was changed every 3 days (Phase III).
Hormones, mixture of hormones i.e. bovine pituitary extract or compounds to be tested were added to the culture at the beginning of phase III. Two criteria were used to evaluate the effect of these materials on sebaceous cultures: 1) visual observations and 2) evaluation of sebaceous lipid accumulation and synthesis. The evaluation of lipid accumulation completed using the Nile red method. This method relies on visualization of neutral lipids by Nile red and quantitation by reading of fluorescence at 535 nm excitation, 580 nm emission using a plate reader. The lipid synthesis was evaluated by radioactive labeling using ^14C acetate and quantified by Bio Rad Phosphoimager (Molecular Imager, FX) using 4.1 Software.
Quantitation of accumulation/inhibition of neutral lipids in sebocytes was accomplished by Nile red binding assay. Briefly, following exposure of sebocytes to test compounds, the cells were allowed to interact with 1 μM Nile red in Hanks buffered saline solution containing DMSO and Pluronic F127. After 4 hours of incubation, washing and incubation overnight, the fluorescence was read at 535 excitation and 580 emission using a fluorescence plate reader.
Following the procedure described above, select compounds of the present invention were tested for visual and Nile red evaluation of lipid accumulation, with results as listed in Table 9.
Following the procedure described above, select compounds of the present invention were tested for their inhibitory effect on differentiation of human sebocytes. […]

A further assay has as its target MC5-R (Homo sapiens, UniProt P33032). In words: MC5-R binding.
The test system of assay [3] is human sebocytes. The experiment in a line: Nile red evaluation of lipid accumulation in sebocytes. It counts as cell-based. The conditions noted are these: for inhibition at 0.4 µM: read-out: % Inh 0.4 μM (lipid accumulation, Nile red); for inhibition at 0.8 µM: read-out: % Inh 0.8 μM (lipid accumulation, Nile red). As for the experimental part:
The cells were incubated at 37° C. for 24 hours prior to their use as a feeder layer for sebocytes. Human sebocytes were isolated from Dermatome shavings of postoperative pieces of human skin at 0.4-0.8 mm depths (this part of the skin was previously shown to be enriched in sebaceous glands). […] This medium was changed every 3 days (Phase III). Hormones, mixture of hormones i.e. bovine pituitary extract or compounds to be tested were added to the culture at the beginning of phase III. […] The evaluation of lipid accumulation completed using the Nile red method. This method relies on visualization of neutral lipids by Nile red and quantitation by reading of fluorescence at 535 nm excitation, 580 nm emission using a plate reader. The lipid synthesis was evaluated by radioactive labeling using ^14C acetate and quantified by Bio Rad Phosphoimager (Molecular Imager, FX) using 4.1 Software. […] Quantitation of accumulation/inhibition of neutral lipids in sebocytes was accomplished by Nile red binding assay. Briefly, following exposure of sebocytes to test compounds, the cells were allowed to interact with 1 μM Nile red in Hanks buffered saline solution containing DMSO and Pluronic F127. After 4 hours of incubation, washing and incubation overnight, the fluorescence was read at 535 excitation and 580 emission using a fluorescence plate reader. […] Following the procedure described above, select compounds of the present invention were tested for visual and Nile red evaluation of lipid accumulation, with results as listed in Table 9.

The next assay concerns rabbit adipocytes. The following applies: read-out: EC50 lipolytic activity; cited from earlier work.
Another assay has as its system rat adipocytes. The following applies: read-out: EC50 lipolytic activity; cited from earlier work.
Assay [4] relates to isolated human and non-human primate adipocytes. The following applies: concentrations as high as 1 μM; cited from earlier work.
The subject of assay [5] is Male Long-Evans rats, facial nerve compression. The experiment in a line: In vivo Facial Nerve Compression Model. The conditions noted are these: test compounds p.o. 20 mg/kg bid, αMSH s.c. 70 ug/each 48 hr. More on the design: species or system rat. The source says: The ability of test compound to provide neuro-protective or neuro-regenerative effects was investigated in a facial nerve compression model. Facial nerve motor axons arise exclusively from neurons within the pons in a well-defined nucleus. Facial nerve compression results in retrograde reactions proximal to the lesion site and Wallerian degeneration at its distal part, which causes diminished whisker movement on the lesioned side.
Male Long-Evans rats (150–180 g) were anesthetized with 3–5% isoflorane for induction and 2% for maintenance during the surgical procedures. The right facial nerve was exposed and compressed with forceps for 30 sec at its exit from the stylomastoid foramen. The left facial nerve was sham-operated and served as an internal control. […] The following morphological abnormalities associated with the functional deficit were observed:
After recovery from anesthesia, the rats were randomly divided into groups for dosing with vehicle, αMSH or test compound, with 6 animals per group. αMSH (s.c., 70 ug/each 48 hr) was used as a positive control. Test compounds were dosed p.o. at 20 mg/kg bid for 14 days. Restoration of whisker movement was monitored daily after the operation using two criteria:
(1) frequency of whisker movement on the lesioned side relative to the opposite side (sham-operated) which served as the baseline control
(2) semi-quantitative measurements (0 to 4+) on strength of the whisker muscles, characterized based on observation of the percentage of moved whiskers, muscle tone of whisker muscles, and the position of the nose. For all observations, the experimental design was blind to the behavioral observer.
The recovery rate of the whisker movement was expressed as percentage of its own internal control (sham-operated), as listed in Table 8.

T1 sequence (P32245 whole entry): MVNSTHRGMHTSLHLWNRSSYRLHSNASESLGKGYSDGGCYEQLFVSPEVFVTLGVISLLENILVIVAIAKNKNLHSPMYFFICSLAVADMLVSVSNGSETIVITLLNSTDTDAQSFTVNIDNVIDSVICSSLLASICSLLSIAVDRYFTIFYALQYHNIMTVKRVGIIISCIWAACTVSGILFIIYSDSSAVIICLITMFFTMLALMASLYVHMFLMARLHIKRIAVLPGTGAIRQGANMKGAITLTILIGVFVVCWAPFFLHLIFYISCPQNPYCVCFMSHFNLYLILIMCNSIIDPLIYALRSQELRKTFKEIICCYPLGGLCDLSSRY
MC5-R, sequence (P33032 whole entry): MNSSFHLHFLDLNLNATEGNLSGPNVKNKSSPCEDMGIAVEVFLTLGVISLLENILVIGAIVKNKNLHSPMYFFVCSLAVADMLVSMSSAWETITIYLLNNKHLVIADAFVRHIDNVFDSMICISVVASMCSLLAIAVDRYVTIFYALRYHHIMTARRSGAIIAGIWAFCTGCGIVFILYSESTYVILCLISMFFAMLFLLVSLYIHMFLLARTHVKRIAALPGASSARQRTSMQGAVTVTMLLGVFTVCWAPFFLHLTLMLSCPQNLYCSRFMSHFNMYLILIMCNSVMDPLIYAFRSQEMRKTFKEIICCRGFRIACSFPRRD

`COc1ccccc1Nc1nc(-c2ccc(C)cc2)[n+](-c2ccccc2OC)s1` [Compound 67]: the IC50 in assay [1] was 130 nM; at MC5-R, 246 nM. In addition, the “Visual* 0.4 μM (inhibition of lipid granule formation)” value with human sebocytes [2] is “++ (++ =50%)”. Further, the “Visual* 0.8 μM (inhibition of lipid granule formation)” value in the assay on human sebocytes [2] is on record as “+++ (+++ = 75%)”.

`COc1ccccc1Nc1nc(-c2ccccc2OC)[n+](-c2ccccc2OC)s1` [Compound 76]: the IC50 in assay [1] worked out at 332 nM. Moreover, in the assay on human sebocytes [3], the inhibition at 0.4 µM worked out at 48% and the inhibition at 0.8 µM amounted to 88%. In the assay on human sebocytes [2], the “Visual* 0.4 μM (inhibition of lipid granule formation)” value is “++ (++ =50%)” and the “Visual* 0.8 μM (inhibition of lipid granule formation)” value is “+++ (+++ = 75%)”. At MC5-R, the IC50 turned out to be 317 nM.

In turn, `COc1ccccc1-c1nc(Nc2ccccc2Cl)s[n+]1-c1ccccc1OC` [Compound 80] came in with an IC50 in assay [1] of 378 nM. Also, in the assay with human sebocytes [3], the inhibition at 0.4 µM is 61% and the inhibition at 0.8 µM was 91%. In the assay with human sebocytes [2], the “Visual* 0.4 μM (inhibition of lipid granule formation)” value is recorded as “++ (++ =50%)” and the “Visual* 0.8 μM (inhibition of lipid granule formation)” value was “++++ (++++ = 100%)”. Besides, on MC5-R, the IC50 turned out to be 138 nM.

Regarding “ACTH: melanocortin neuropeptide arising from pro-opiomelanocortin (POMC) (SYSMEHFRWGKPVGKKRRPVKVYPNGAEDESAEAFPLEF; Corticotropin; UniProt P01189 138-176, looked up)”, the 50% effective concentration (EC50) was 16.4 nM in the assay on rabbit adipocytes and 1.34 nM with rat adipocytes. For the same compound, the effect on lipolysis entry in assay [4] is “very little effect on lipolysis”.

With “α-MSH: alpha-melanocyte stimulating hormone peptide, used as a positive control [reference compound]”, the “Percent Recovery of whisker movement D9” value in assay [5] (D9, % of sham-operated side) stood at 2.0%. For the same compound, the “Percent Recovery of whisker movement D10” value in assay [5] (D10) is recorded as 24.6%. Further, in assay [5] (D11), the “Percent Recovery of whisker movement D11” value was 60.1%. Moreover, in assay [5] (D12), the “Percent Recovery of whisker movement D12” value is listed as 93.8%. The “Percent Recovery of whisker movement D13” value in assay [5] (D13) was found to be 98.1%. Besides, the “Percent Recovery of whisker movement D14” value in assay [5] (D14) is recorded as 100%. Moreover, the EC50 in the assay with rabbit adipocytes was 3.7 nM.
